Reference: PubChem BioAssay (NCI)
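GI50 = concentration required for 50% inhibition of growth. Definition used: TGI = concentration required for complete inhibition of growth.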

Key:
Test in all cases: NCI tumour cell line growth inhibition, 384-well format
786-0 renal = test system: 786-0 renal
A498 renal = test system: A498 renal
A549 NSCLC = test system: A549 NSCLC
ACHN renal = test system: ACHN renal
BT-549 breast = test system: BT-549 breast
CAKI-1 renal = test system: CAKI-1 renal
CCRF-CEM leukemia = test system: CCRF-CEM leukemia
COLO 205 colon = test system: COLO 205 colon
DU-145 prostate = test system: DU-145 prostate
EKVX NSCLC = test system: EKVX NSCLC
HCC-2998 colon = test system: HCC-2998 colon
HCT-116 colon = test system: HCT-116 colon
HCT-15 colon = test system: HCT-15 colon
HL-60(TB) leukemia = test system: HL-60(TB) leukemia
HOP-62 NSCLC = test system: HOP-62 NSCLC
HOP-92 NSCLC = test system: HOP-92 NSCLC
HS 578T breast = test system: HS 578T breast
HT29 colon = test system: HT29 colon
IGROV1 ovarian = test system: IGROV1 ovarian
K-562 leukemia = test system: K-562 leukemia
KM12 colon = test system: KM12 colon
LOX IMVI melanoma = test system: LOX IMVI melanoma
M14 melanoma = test system: M14 melanoma
MALME-3M melanoma = test system: MALME-3M melanoma
MCF7 breast = test system: MCF7 breast
MDA-MB-231 breast = test system: MDA-MB-231 breast
MDA-MB-435 melanoma = test system: MDA-MB-435 melanoma
MDA-MB-468 breast = test system: MDA-MB-468 breast
MOLT-4 leukemia = test system: MOLT-4 leukemia
NCI-H226 lung = test system: NCI-H226 lung
NCI-H23 lung = test system: NCI-H23 lung
NCI-H322M lung = test system: NCI-H322M lung
NCI-H460 NSCLC = test system: NCI-H460 NSCLC
NCI-H522 lung = test system: NCI-H522 lung
NCI/ADR-RES ovarian = test system: NCI/ADR-RES ovarian
OVCAR-3 ovarian = test system: OVCAR-3 ovarian
OVCAR-4 ovarian = test system: OVCAR-4 ovarian
OVCAR-5 ovarian = test system: OVCAR-5 ovarian
OVCAR-8 ovarian = test system: OVCAR-8 ovarian
PC-3 prostate = test system: PC-3 prostate
RPMI-8226 leukemia = test system: RPMI-8226 leukemia
RXF 393 renal = test system: RXF 393 renal
SF-268 CNS = test system: SF-268 CNS
SF-295 CNS = test system: SF-295 CNS
SF-539 CNS = test system: SF-539 CNS
SK-MEL-2 melanoma = test system: SK-MEL-2 melanoma
SK-MEL-28 melanoma = test system: SK-MEL-28 melanoma
SK-MEL-5 melanoma = test system: SK-MEL-5 melanoma
SK-OV-3 ovarian = test system: SK-OV-3 ovarian
SN12C renal = test system: SN12C renal
SNB-19 CNS = test system: SNB-19 CNS
SNB-75 CNS = test system: SNB-75 CNS
SR leukemia = test system: SR leukemia
SW-620 colon = test system: SW-620 colon
T-47D breast = test system: T-47D breast
TK-10 renal = test system: TK-10 renal
U251 glioblastoma = test system: U251 glioblastoma
UACC-257 melanoma = test system: UACC-257 melanoma
UACC-62 melanoma = test system: UACC-62 melanoma
UO-31 renal = test system: UO-31 renal

## C[C@H]1C[C@@H](n2c(Nc3ccc(OC(F)(F)F)cc3)nc3cc(CCC(=O)O)ccc32)CC(C)(C)C1
786-0 renal
  GI50: 13.8 µM
  TGI: 26.8 µM
A498 renal
  GI50: 13.3 µM
  TGI: 26.2 µM
A549 NSCLC
  GI50: 7.54 µM
  TGI: 20.2 µM
ACHN renal
  GI50: 15.5 µM
  TGI: 30.8 µM
BT-549 breast
  GI50: 13 µM
  TGI: 25.8 µM
CAKI-1 renal
  GI50: 17.2 µM
  TGI: 31 µM
CCRF-CEM leukemia
  GI50: 11.9 µM
  TGI: 24.3 µM
COLO 205 colon
  GI50: 17.5 µM
  TGI: 31.5 µM
DU-145 prostate
  GI50: 11.8 µM
  TGI: 24.2 µM
EKVX NSCLC
  GI50: 14.6 µM
  TGI: 27.9 µM
HCC-2998 colon
  GI50: 14.1 µM
  TGI: 27.1 µM
HCT-116 colon
  GI50: 12.2 µM
  TGI: 24.9 µM
HCT-15 colon
  GI50: 13.9 µM
  TGI: 27.1 µM
HL-60(TB) leukemia
  GI50: 8.07 µM
  TGI: 17.7 µM
HOP-62 NSCLC
  GI50: 12.2 µM
  TGI: 24.7 µM
HOP-92 NSCLC
  GI50: 16 µM
  TGI: 29.5 µM
HS 578T breast
  GI50: 11 µM
  TGI: 23.1 µM
HT29 colon
  GI50: 12.7 µM
  TGI: 25.6 µM
IGROV1 ovarian
  GI50: 12.7 µM
  TGI: 25.4 µM
K-562 leukemia
  GI50: 12.2 µM
  TGI: 24.9 µM
KM12 colon
  GI50: 13.8 µM
  TGI: 26.9 µM
LOX IMVI melanoma
  GI50: 16.7 µM
  TGI: 30.5 µM
M14 melanoma
  GI50: 15.4 µM
  TGI: 28.9 µM
MALME-3M melanoma
  GI50: 18.3 µM
  TGI: 32.4 µM
MCF7 breast
  TGI: 19.2 µM
MDA-MB-231 breast
  GI50: 16.4 µM
  TGI: 30 µM
MDA-MB-435 melanoma
  GI50: 14.9 µM
  TGI: 28.3 µM
MDA-MB-468 breast
  GI50: 13.7 µM
  TGI: 28.7 µM
MOLT-4 leukemia
  GI50: 5.49 µM
  TGI: 17.4 µM
NCI-H226 lung
  GI50: 16.2 µM
  TGI: 29.8 µM
NCI-H23 lung
  GI50: 14.6 µM
  TGI: 27.9 µM
NCI-H322M lung
  GI50: 17 µM
  TGI: 30.9 µM
NCI-H460 NSCLC
  GI50: 13.6 µM
  TGI: 26.8 µM
NCI-H522 lung
  GI50: 16.5 µM
  TGI: 30.1 µM
NCI/ADR-RES ovarian
  GI50: 16.1 µM
  TGI: 29.8 µM
OVCAR-3 ovarian
  GI50: 9.71 µM
  TGI: 22.5 µM
OVCAR-4 ovarian
  GI50: 13.1 µM
  TGI: 25.9 µM
OVCAR-5 ovarian
  GI50: 17.2 µM
  TGI: 31.1 µM
OVCAR-8 ovarian
  GI50: 9.58 µM
  TGI: 22 µM
PC-3 prostate
  GI50: 13.7 µM
  TGI: 26.8 µM
RPMI-8226 leukemia
  GI50: 4.46 µM
  TGI: 11.4 µM
RXF 393 renal
  GI50: 13 µM
  TGI: 25.7 µM
SF-268 CNS
  GI50: 13 µM
  TGI: 25.8 µM
SF-295 CNS
  GI50: 11.8 µM
  TGI: 24.2 µM
SF-539 CNS
  GI50: 14.5 µM
  TGI: 27.7 µM
SK-MEL-2 melanoma
  GI50: 17.9 µM
  TGI: 31.8 µM
SK-MEL-28 melanoma
  GI50: 14.3 µM
  TGI: 27.5 µM
SK-MEL-5 melanoma
  GI50: 14.2 µM
  TGI: 27.3 µM
SK-OV-3 ovarian
  GI50: 18.2 µM
  TGI: 32.2 µM
SN12C renal
  GI50: 15.7 µM
  TGI: 29.2 µM
SNB-19 CNS
  GI50: 12.5 µM
  TGI: 25.1 µM
SNB-75 CNS
  GI50: 20.3 µM
  TGI: 34.6 µM
SR leukemia
  GI50: 7 µM
  TGI: 20 µM
SW-620 colon
  GI50: 14.6 µM
  TGI: 27.9 µM
T-47D breast
  GI50: 13.5 µM
  TGI: 27.6 µM
TK-10 renal
  GI50: 16 µM
  TGI: 29.7 µM
U251 glioblastoma
  GI50: 9.69 µM
  TGI: 22.5 µM
UACC-257 melanoma
  GI50: 17.8 µM
  TGI: 31.8 µM
UACC-62 melanoma
  GI50: 15.2 µM
  TGI: 28.6 µM
UO-31 renal
  GI50: 11.9 µM
  TGI: 24.4 µM
